In article PMC9599461, “Stereoselectivity in the Membrane Transport of Phenylethylamine Derivatives by Human Monoamine Transporters and Organic Cation Transporters 1, 2, and 3” (Biomolecules, 2022):
Read-outs that look alike come from different tables or passages of the source. Marks after values point to notes of the source that are not given here.

What was measured:
[1] = target: T1, OCT3 (Homo sapiens, UniProt O75751); experiment: Stereoselective uptake into OCT3-overexpressing HEK293 cells; settings: for Clint ± SEM / Stereoselectivity Vmax / Stereoselectivity Km / Stereoselectivity ClInt: OCT3; for Clint ± SEM: quotient of vmax over Km; for Stereoselectivity Vmax / Stereoselectivity Km / Stereoselectivity ClInt: ratio between enantiomers; for Stereoselectivity Vmax: given as for (R) or for 1; for Stereoselectivity Km: given as for (R) or for 1 (first-eluting);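 as to all read-outs here: intracellular accumulation in HEK293 cells measured by chiral HPLC-MS/MS after a 2 min substrate exposure at 37 °C, uptake normalized to total protein (bicinchoninic acid assay)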
T1 sequence (O75751 1-556): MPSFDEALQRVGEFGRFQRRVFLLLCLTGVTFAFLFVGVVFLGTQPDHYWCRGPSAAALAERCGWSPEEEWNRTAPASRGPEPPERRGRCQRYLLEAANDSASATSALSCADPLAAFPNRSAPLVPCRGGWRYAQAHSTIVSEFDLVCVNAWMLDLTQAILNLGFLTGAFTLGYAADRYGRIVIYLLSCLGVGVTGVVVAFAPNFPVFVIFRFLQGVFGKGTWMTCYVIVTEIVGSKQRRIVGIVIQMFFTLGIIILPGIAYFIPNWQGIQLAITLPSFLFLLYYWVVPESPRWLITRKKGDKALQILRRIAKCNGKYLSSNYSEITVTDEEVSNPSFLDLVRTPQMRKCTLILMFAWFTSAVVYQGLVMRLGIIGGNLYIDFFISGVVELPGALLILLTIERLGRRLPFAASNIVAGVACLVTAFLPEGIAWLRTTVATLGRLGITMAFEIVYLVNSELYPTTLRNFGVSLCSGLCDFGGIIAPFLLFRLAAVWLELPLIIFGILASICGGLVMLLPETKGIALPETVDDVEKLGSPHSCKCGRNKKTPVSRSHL
Description: (§1) All transport experiments were carried out in HEK293 cells stably overexpressing human MATs or OCTs. […] All cells were regularly cultivated in DMEM supplemented with 10% (v/v) FCS, penicillin (100 U/mL) and streptomycin (100 μg/mL)and kept in culture for no longer than 30 passages.
(§2) For the uptake experiments, 300,000 cells were plated in poly-D-lysine precoated 24-well plates 48 h ahead of the transport experiment. On the day of experiment, cells were initially washed once with 37 °C pre-warmed HBSS+ (Hanks buffered salt solution supplemented with 10 mM HEPES) and subsequently incubated with the substrates dissolved in pre-warmed HBSS+ for exactly two minutes. Incubation was stopped by adding ice-cold HBSS+ followed by two washing steps. After this, cells were lysed with 80% acetonitrile containing 10 ng/mL milnacipran as internal standard for high-performance liquid chromatography coupled to tandem mass spectrometry (HPLC-MS/MS) analysis. For every experiment, two additional wells per cell line were lysed using RIPA buffer for protein quantification. Total protein was quantified using the bicinchoninic acid assay [42]. This was later used for normalization of the uptake data.
(§3) Intracellularly accumulated test substances were quantified by HPLC-MS/MS analysis using a Shimadzu Nexera HPLC system with a SIL-30AC autosampler, a CTO-20AC column oven, a LC-30AD pump, and a CBM-20A controller (Shimadzu, Kyoto, Japan). Stereoselective chromatography was carried out on a [sequence] CBH HPLC column (100 × 3 mm inner dimension with 5 μM particle size; Sigma-Aldrich, Darmstadt, Germany) with a corresponding 10 × 3 mm guard column. Reversed phased chromatography was carried out using an ammonium acetate (NH4Ac) buffered aqueous mobile phase with isopropyl alcohol (IPA) as organic solvent. […] The order of elution of the enantiomers was obtained from available reference literature [43] or by applying enantiopure reference compounds to the chiral HPLC. […] Given the structural similarity of the investigated substances and the fact that separation was performed on the same column with almost identical mobile phases, we assume that this order of elution for our compound set is always the (R)- before the (S)-enantiomer.
(§4) Detection was performed with an API 4000 tandem mass spectrometer (AB SCIEX, Darmstadt, Germany) operating in multiple-reaction-monitoring mode. Quantification was performed using the Analyst 1.6.2 software (AB SCIEX, Darmstadt, Germany) and quantified by comparison to standard curves with known concentrations.
(§5) All uptake data were normalized to protein content to account for variation in the number of seeded sells. Transporter-mediated net uptake was calculated by subtracting uptake into empty vector-transfected control cells from uptake into transporter-transfected cells. Kinetic parameters were then determined after non-linear regression following the Michaelis–Menten equation (v = vmax × [S]/(Km + [S])) using GraphPad Prism (Version 5.01 for Windows, GraphPad Software, La Jolla, CA, USA). Vmax refers to the maximum transport velocity and Km is defined as the substance concentration required to reach half of vmax. The intrinsic clearance Clint was calculated as the quotient of vmax over Km.

[2] = target: T2, OCT1 (Homo sapiens, UniProt O15245); experiment: Stereoselective uptake into OCT1-overexpressing HEK293 cells; settings: for Vmax ± SEM: net uptake; for Clint ± SEM: quotient of vmax over Km; for Stereoselectivity Km: given as for (S) or for 2 (second-eluting);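 as to all read-outs here: enantiomers quantified inside cells by chiral HPLC-MS/MS, uptake normalized to total protein from bicinchoninic acid assay, substrates applied in HBSS+ buffer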
T2 sequence (O15245 1-554): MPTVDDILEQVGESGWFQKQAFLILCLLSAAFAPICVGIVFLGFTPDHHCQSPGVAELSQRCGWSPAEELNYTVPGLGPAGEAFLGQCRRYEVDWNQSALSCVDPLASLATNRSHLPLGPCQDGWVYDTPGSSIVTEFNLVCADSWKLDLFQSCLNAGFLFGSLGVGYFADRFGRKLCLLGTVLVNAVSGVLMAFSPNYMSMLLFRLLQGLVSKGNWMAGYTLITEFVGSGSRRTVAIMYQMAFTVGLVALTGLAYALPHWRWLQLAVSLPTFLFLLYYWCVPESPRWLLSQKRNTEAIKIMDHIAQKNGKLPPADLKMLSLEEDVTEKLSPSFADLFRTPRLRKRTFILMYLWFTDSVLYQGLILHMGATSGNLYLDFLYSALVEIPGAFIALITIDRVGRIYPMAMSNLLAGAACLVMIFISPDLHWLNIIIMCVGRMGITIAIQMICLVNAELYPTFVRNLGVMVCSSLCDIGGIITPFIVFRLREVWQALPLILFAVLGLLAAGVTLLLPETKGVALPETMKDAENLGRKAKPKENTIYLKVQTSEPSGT
Description: as §1, §2, §3, §4, §5

[3] = target: T3, OCT2 (Homo sapiens, UniProt O15244, S270A); experiment: Stereoselective uptake into OCT2 (wild-type)-overexpressing HEK293 cells; settings: OCT2, ratio between enantiomers; for Stereoselectivity ClInt / Stereoselectivity Vmax: given as for (R) or for 1
T3 sequence (O15244 1-555 S270A): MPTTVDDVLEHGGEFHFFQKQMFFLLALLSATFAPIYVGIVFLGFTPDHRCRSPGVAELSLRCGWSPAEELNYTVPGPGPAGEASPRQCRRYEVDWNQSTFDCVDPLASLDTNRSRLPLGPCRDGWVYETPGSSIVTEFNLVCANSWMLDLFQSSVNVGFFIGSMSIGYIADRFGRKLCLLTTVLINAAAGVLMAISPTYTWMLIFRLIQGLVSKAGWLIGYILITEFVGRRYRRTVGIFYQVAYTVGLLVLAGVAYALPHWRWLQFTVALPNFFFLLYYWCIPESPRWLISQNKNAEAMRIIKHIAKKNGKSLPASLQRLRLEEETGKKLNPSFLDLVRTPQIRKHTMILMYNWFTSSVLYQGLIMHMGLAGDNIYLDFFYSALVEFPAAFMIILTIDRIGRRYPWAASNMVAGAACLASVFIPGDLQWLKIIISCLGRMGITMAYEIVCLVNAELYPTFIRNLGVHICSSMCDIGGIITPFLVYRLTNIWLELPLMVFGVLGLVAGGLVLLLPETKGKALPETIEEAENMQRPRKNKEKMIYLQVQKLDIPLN

[4] = target: T4, OCT2 (Homo sapiens, UniProt O15244); experiment: as above; settings: for Vmax ± SEM: net uptake; for Clint ± SEM: OCT2, quotient of vmax over Km
T4 sequence (O15244 1-555 S270A): T3 sequence (O15244 1-555 S270A)

[5] = target: T5, SERT (Homo sapiens, UniProt P31645);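 also: uptake into HEK293 cells stably expressing human SERT over 2 min, enantiomers measured in cell lysate by chiral HPLC-MS/MS, normalized to total protein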
[6] = target: DAT (Homo sapiens, UniProt Q01959); experiment: Stereoselective uptake into DAT-overexpressing HEK293 cells;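 also: intracellular accumulation measured by chiral HPLC-MS/MS in stably transfected HEK293 cells, normalized to total protein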
Description: as §1, §2, §3, §4, §5

[7] = target: T5, SERT; experiment: Stereoselective uptake into SERT-overexpressing HEK293 cells; settings: for Clint ± SEM: SERT, quotient of vmax over Km;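 as to all read-outs here: uptake into HEK293 cells stably expressing human SERT over 2 min, enantiomers measured in cell lysate by chiral HPLC-MS/MS, normalized to total protein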
[8] = test system: OCT2 A270S variant; experiment: Stereoselective uptake into OCT2 A270S variant-overexpressing HEK293 cells; settings: OCT2 wild-type versus A270S, 100 μM racemic substance, two minutes;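 also: uptake into HEK293 cells stably overexpressing human OCT2 variants, intracellular enantiomers quantified by chiral HPLC-MS/MS and normalized to total protein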
Description: as §1, §2
Intracellularly accumulated test substances were quantified by HPLC-MS/MS analysis using a Shimadzu Nexera HPLC system with a SIL-30AC autosampler, a CTO-20AC column oven, a LC-30AD pump, and a CBM-20A controller (Shimadzu, Kyoto, Japan). Stereoselective chromatography was carried out on a [sequence] CBH HPLC column (100 × 3 mm inner dimension with 5 μM particle size; Sigma-Aldrich, Darmstadt, Germany) with a corresponding 10 × 3 mm guard column. Reversed phased chromatography was carried out using an ammonium acetate (NH4Ac) buffered aqueous mobile phase with isopropyl alcohol (IPA) as organic solvent. […] The order of elution of the enantiomers was obtained from available reference literature [43] or by applying enantiopure reference compounds to the chiral HPLC. […] However, in every other case where the order of elution was available, the (R)-enantiomer eluted first. Given the structural similarity of the investigated substances and the fact that separation was performed on the same column with almost identical mobile phases, we assume that this order of elution for our compound set is always the (R)- before the (S)-enantiomer.
as §4, §5
HEK293 cells stably overexpressing wild-type or mutant OCT2 were incubated with 100 μM racemic substance for two minutes.

[9] = target: NET (Homo sapiens, UniProt P23975); experiment: Stereoselective uptake into NET-overexpressing HEK293 cells;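 also: intracellular enantiomers quantified in cell lysates by chiral HPLC-MS/MS after a 2 min substrate incubation, with uptake normalized to total cellular protein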
[10] = HEK293 cells overexpressing human OCT1, racemic substrate, two minutes
[11] = OCT1, ratio between enantiomers, given as for (S) or for 2
[12] = OCT1, ratio between enantiomers
[13] = HEK293 cells overexpressing human OCT2, racemic substrate, two minutes
[14] = DAT, ratio between enantiomers, given as for (S) or for 2
[15] = NET, ratio between enantiomers, given as for (S) or for 2

T5 sequence (P31645 whole entry): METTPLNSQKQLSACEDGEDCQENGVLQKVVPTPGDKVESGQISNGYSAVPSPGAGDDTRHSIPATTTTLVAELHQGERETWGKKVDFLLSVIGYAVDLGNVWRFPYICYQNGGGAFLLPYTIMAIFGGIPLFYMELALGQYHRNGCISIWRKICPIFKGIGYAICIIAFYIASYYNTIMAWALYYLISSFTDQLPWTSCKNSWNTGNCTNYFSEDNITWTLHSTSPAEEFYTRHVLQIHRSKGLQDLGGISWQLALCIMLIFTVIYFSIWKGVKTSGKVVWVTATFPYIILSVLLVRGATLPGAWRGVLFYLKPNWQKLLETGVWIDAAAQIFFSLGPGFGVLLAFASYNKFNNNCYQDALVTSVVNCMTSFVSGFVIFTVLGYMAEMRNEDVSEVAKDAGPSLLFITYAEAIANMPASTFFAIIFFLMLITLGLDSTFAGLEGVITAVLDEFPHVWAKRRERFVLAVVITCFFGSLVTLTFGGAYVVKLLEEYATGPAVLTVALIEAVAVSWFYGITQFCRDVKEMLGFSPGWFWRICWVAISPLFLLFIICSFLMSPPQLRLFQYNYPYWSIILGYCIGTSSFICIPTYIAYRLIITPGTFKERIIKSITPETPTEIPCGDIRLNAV
Chain of DAT (Q01959 whole entry): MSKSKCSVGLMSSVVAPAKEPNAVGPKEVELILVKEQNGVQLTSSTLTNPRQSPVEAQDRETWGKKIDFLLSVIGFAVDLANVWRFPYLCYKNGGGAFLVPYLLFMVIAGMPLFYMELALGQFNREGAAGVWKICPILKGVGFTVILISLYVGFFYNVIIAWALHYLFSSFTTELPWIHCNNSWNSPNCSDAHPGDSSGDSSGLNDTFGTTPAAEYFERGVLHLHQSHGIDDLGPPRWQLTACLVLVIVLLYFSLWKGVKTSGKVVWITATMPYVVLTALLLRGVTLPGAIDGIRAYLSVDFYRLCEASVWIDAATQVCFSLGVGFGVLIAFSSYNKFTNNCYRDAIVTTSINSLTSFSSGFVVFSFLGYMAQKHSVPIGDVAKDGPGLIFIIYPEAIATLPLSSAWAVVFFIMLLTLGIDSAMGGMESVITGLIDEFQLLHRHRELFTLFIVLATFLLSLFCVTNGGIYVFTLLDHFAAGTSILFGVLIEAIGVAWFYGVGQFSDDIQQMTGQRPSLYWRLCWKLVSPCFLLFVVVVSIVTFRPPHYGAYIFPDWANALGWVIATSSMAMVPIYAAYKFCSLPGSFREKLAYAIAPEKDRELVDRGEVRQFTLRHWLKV
Chain of NET (P23975 whole entry): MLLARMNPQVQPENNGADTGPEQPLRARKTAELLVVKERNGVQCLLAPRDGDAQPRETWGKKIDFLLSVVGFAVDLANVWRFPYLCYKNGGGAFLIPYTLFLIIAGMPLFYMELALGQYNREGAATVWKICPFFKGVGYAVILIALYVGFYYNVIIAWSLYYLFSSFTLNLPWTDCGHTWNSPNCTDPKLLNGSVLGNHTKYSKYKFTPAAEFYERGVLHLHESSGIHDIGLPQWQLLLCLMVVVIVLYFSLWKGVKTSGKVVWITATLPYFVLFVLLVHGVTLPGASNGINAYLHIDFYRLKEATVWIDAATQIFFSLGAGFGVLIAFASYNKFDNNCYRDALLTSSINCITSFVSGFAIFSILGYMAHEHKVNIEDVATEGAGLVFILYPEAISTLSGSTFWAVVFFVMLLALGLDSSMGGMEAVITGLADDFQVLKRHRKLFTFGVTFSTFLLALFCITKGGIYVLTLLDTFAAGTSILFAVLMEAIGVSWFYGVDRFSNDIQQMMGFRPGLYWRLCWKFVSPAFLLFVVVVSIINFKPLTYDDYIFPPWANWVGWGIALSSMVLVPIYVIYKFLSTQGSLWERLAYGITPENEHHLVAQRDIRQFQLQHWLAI

NC[C@H](O)c1ccc(O)c(O)c1 [(R)-Norepinephrine]
Vmax ± SEM ([1]; HEK293 cells overexpressing human OCT3, racemic substrate, two minutes, net uptake): 3683 ± 360 pmol × mg Protein^−1 × min^−1 | Clint ± SEM [1]: 6.61 ± 3.02 mL × g Protein^−1 × min^−1 | Stereoselectivity Vmax [1]: 1.01-fold for (R) | Stereoselectivity Km [1]: 1.07-fold for (R) | Stereoselectivity ClInt ([1]; given as for (S) or for 2): 1.07-fold for (S) | Km ([1]; read-out: Km ± SEM, HEK293 cells overexpressing human OCT3, racemic substrate, two minutes, net uptake minus empty vector control): 557 ± 200 µM | Vmax ± SEM [2, 10]: 1524 ± 330 pmol × mg Protein^−1 × min^−1 | Clint ± SEM ([2]; OCT1): 0.45 ± 0.28 mL × g Protein^−1 × min^−1 | Stereoselectivity ClInt [2, 11]: 1.06-fold for (S) | Stereoselectivity Vmax [2, 11]: 1.16-fold for (S) | Stereoselectivity Km [2, 12]: 1.09-fold for (S) | Km ([2]; read-out: Km ± SEM, HEK293 cells overexpressing human OCT1, racemic substrate, two minutes, net uptake minus empty vector control): 3390 ± 1420 µM | Stereoselectivity ClInt [3]: 1.64-fold for (R) | Stereoselectivity Vmax [3]: 2.17-fold for (R) ** | Stereoselectivity Km ([3]; given as for (R) or for 1 (first-eluting)): 1.32-fold for (R) | Vmax ± SEM [4, 13]: 6603 ± 664 pmol × mg Protein^−1 × min^−1 | Clint ± SEM [4]: 3.81 ± 1.30 mL × g Protein^−1 × min^−1 | Km ([4]; read-out: Km ± SEM, HEK293 cells overexpressing human OCT2, racemic substrate, two minutes, net uptake minus empty vector control): 1730 ± 418 µM | Stereoselectivity ClInt [5]: 1.78-fold for (R) | Clint ± SEM ([6]; DAT, quotient of vmax over Km): 138.8 ± 19.7 mL × g Protein^−1 × min^−1 | Stereoselectivity ClInt [6, 14]: 1.12-fold for (S) | Stereoselectivity Vmax [6, 14]: 1.47-fold for (S) *** | Stereoselectivity Km ([6]; DAT, ratio between enantiomers, given as for (S) or for 2 (second-eluting)): 1.31-fold for (S) | Vmax ± SEM ([6]; HEK293 cells overexpressing human DAT, racemic substrate, two minutes, net uptake): 3085 ± 81 pmol × mg Protein^−1 × min^−1 | Km ([6]; read-out: Km ± SEM, HEK293 cells overexpressing human DAT, racemic substrate, two minutes, net uptake minus empty vector control): 22.2 ± 2.6 µM | Stereoselectivity Km [7]: 1.01-fold for (R) | Stereoselectivity Vmax [7]: 1.79-fold for (R) ** | Vmax ± SEM ([7]; HEK293 cells overexpressing human SERT, racemic substrate, two minutes, net uptake): 727 ± 60 pmol × mg Protein^−1 × min^−1 | Clint ± SEM [7]: 4.12 ± 1.31 mL × g Protein^−1 × min^−1 | Km ([7]; read-out: Km ± SEM, HEK293 cells overexpressing human SERT, racemic substrate, two minutes, net uptake minus empty vector control): 176 ± 41.7 µM | Transporter selectivity ([8]; given as for WT): 1.21 fold | Vmax ± SEM ([9]; HEK293 cells overexpressing human NET, racemic substrate, two minutes, net uptake): 262 ± 15 pmol × mg Protein^−1 × min^−1 | Clint ± SEM ([9]; NET, quotient of vmax over Km): 113.3 ± 47.6 mL × g Protein^−1 × min^−1 | Stereoselectivity ClInt [9, 15]: 1.05-fold for (S) | Stereoselectivity Vmax [9, 15]: 1.38-fold for (S) ** | Stereoselectivity Km ([9]; NET, ratio between enantiomers, given as for (S) or for 2 (second-eluting)): 1.32-fold for (S) | Km ([9]; read-out: Km ± SEM, HEK293 cells overexpressing human NET, racemic substrate, two minutes, net uptake minus empty vector control): 2.31 ± 0.84 µM

CNCC(O)c1ccc(O)c(OC)c1 (single isomer, unassigned) [Metanephrine-2, Metanephrine]
Clint ± SEM [1]: 26.0 mL × g Protein^−1 × min^−1 | Stereoselectivity Vmax [1]: 1.19 fold | Stereoselectivity ClInt ([1]; given as for (R) or for 1 (also 1.00-fold for 1/2)): 1.00 fold | Stereoselectivity Km [1]: 1.19 fold | Vmax ± SEM [2, 10]: 1018 pmol × mg Protein^−1 × min^−1 | Clint ± SEM ([2]; OCT1): 6.97 mL × g Protein^−1 × min^−1 | Stereoselectivity Vmax ([2]; OCT1, ratio between enantiomers, given as for (R) or for 1): 1.06 fold | Stereoselectivity Km [2, 12]: 1.09 fold | Stereoselectivity ClInt ([2]; human, 2 min): 1.16 fold | Stereoselectivity ClInt [3]: 2.66 fold | Stereoselectivity Vmax [3]: 2.13 fold | Stereoselectivity Km ([3]; given as for (S) or for 2 (second-eluting)): 1.25 fold | Vmax ± SEM [4, 13]: 528 pmol × mg Protein^−1 × min^−1 | Clint ± SEM [4]: 7.75 mL × g Protein^−1 × min^−1 | Stereoselectivity ClInt ([5]; human): 1.01 fold | Saturable net uptake ([6]; DAT, result in words): No saturable net uptake | Stereoselectivity Km [7]: 1.09 fold | Stereoselectivity Vmax [7]: 1.08 fold | Clint ± SEM [7]: 0.57 mL × g Protein^−1 × min^−1 | Transporter selectivity ([8]; given as for A270S, listed as (S)-Metanephrine): 1.47 fold | Saturable net uptake ([9]; NET, result in words): No saturable net uptake
